Test results reported in USRE48461E1, “Modulation of androgen receptor expression” (Ionis Pharmaceuticals, Inc., priority 2012, dated 2021).
Oligonucleotides are written 5' to 3', each unit as a sugar letter and its base; * is a phosphorothioate linkage, no mark a phosphodiester; rarer units and linkages stand in square brackets, end groups in braces. Plain capitals give the bases only. e = 2'-O-(2-methoxyethyl) (MOE); k = constrained ethyl (cEt); [5mC] = 5-methylcytosine; d = 2'-deoxy (DNA)

Legend:
[1] = system: AR mRNA; assay: Antisense inhibition of human AR in HuVEC cells, single concentration (electroporation, qRT-PCR RTS3559); format: cell-based
Summary of the method: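 HuVEC cells electroporated with antisense oligonucleotides at a single concentration. AR mRNA quantified by qRT-PCR using human primer-probe set RTS3559 and normalised to total RNA content by RIBOGREEN.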

[2] = system: AR mRNA; assay: Dose-dependent antisense inhibition of human AR in HuVEC cells (electroporation, qRT-PCR RTS3559, IC50); format: cell-based; conditions: HuVEC
Summary of the method: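 HuVEC cells dosed with antisense oligonucleotides by electroporation and treated approximately 16 hours. AR mRNA quantified by real-time qPCR with primer probe set RTS3559 and normalised to total RNA by RIBOGREEN; IC50 from dose-response.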

[3] = Table 20, 500 nM oligonucleotide, electroporation, approximately 24 hours, relative to untreated control
[4] = Table 32, electroporation, approximately 16 hours
[5] = Table 36, electroporation, approximately 16 hours
[6] = Table 29, electroporation, approximately 16 hours
[7] = Table 31, electroporation, approximately 16 hours

560071 (eT*eG*eG*eT*eT*dG*dA*dT*dT*dT*dA*dA*dT*dG*dG*eT*eT*eG*e[5mC]*eA) [compound 560071]
% inhibition ([1]; 500 nM ASO, ~24 h, Table 5): 73%
percent inhibition of AR ([2]; 31.25 nM, ~16 h, Table 6): 7%
percent inhibition of AR ([2]; 62.5 nM, ~16 h, Table 6): 0%
percent inhibition of AR ([2]; 125.0 nM, ~16 h, Table 6): 19%
percent inhibition of AR ([2]; 500.0 nM, ~16 h, Table 6): 57%
percent inhibition of AR ([2]; 1000.0 nM, ~16 h, Table 6): 76%
IC50 ([2]; ~16 h, Table 6): 400 nM

583850 (kG*kG*kA*d[5mC]*dG*d[5mC]*dA*d[5mC]*dA*dG*d[5mC]*dG*dG*kG*kT*kG; antisense) [compound 583850]
% inhibition [1, 3]: 38%
percent inhibition of AR, 46.9 nM [2, 4]: 9%
percent inhibition of AR, 187.5 nM [2, 4]: 21%
percent inhibition of AR, 750.0 nM [2, 4]: 54%
percent inhibition of AR, 3000.0 nM [2, 4]: 78%
IC50 [2, 4]: 600 nM

584469 (kT*kT*kT*dG*dG*dT*dA*dA*d[5mC]*dA*dT*dT*dA*kG*kG*k[5mC]; antisense) [compound 584469]
% inhibition ([1]; Table 27, 1,000 nM oligonucleotide, electroporation, approximately 24 hours, relative to untreated control): 74%
% inhibition ([1]; Table 28, 1,000 nM oligonucleotide, electroporation, approximately 24 hours, relative to untreated control): 63%
percent inhibition of AR, 46.9 nM [2, 5]: 13%
percent inhibition of AR, 187.5 nM [2, 5]: 46%
percent inhibition of AR, 750.0 nM [2, 5]: 73%
percent inhibition of AR, 3000.0 nM [2, 5]: 89%
IC50 [2, 5]: 220 nM

583638 (antisense kT*kG*kA*dT*d[5mC]*dT*d[5mC]*dT*dG*dG*d[5mC]*dT*d[5mC]*k[5mC]*kG*k[5mC]) [compound 583638]
% inhibition ([1]; 500 nM ASO, ~24 h, Table 17): 51%
percent inhibition of AR, 46.9 nM [2, 6]: 33%
percent inhibition of AR, 187.5 nM [2, 6]: 64%
percent inhibition of AR, 750.0 nM [2, 6]: 79%
percent inhibition of AR, 3000.0 nM [2, 6]: 85%
IC50 [2, 6]: 110 nM

583731 (antisense k[5mC]*kG*k[5mC]*dG*d[5mC]*dA*d[5mC]*dG*d[5mC]*dT*d[5mC]*dT*dG*kG*kA*kA) [compound 583731]
% inhibition ([1]; 500 nM ASO, ~24 h, Table 18): 34%
percent inhibition of AR, 46.9 nM [2, 7]: 18%
percent inhibition of AR, 187.5 nM [2, 7]: 24%
percent inhibition of AR, 750.0 nM [2, 7]: 47%
percent inhibition of AR, 3000.0 nM [2, 7]: 58%
IC50 [2, 7]: 1310 nM

583871 (kA*kT*kA*d[5mC]*dT*d[5mC]*dA*dG*d[5mC]*dA*dG*dT*dA*kT*k[5mC]*kT; antisense) [compound 583871]
% inhibition [1, 3]: 47%
percent inhibition of AR, 46.9 nM [2, 4]: 28%
percent inhibition of AR, 187.5 nM [2, 4]: 30%
percent inhibition of AR, 750.0 nM [2, 4]: 68%
percent inhibition of AR, 3000.0 nM [2, 4]: 87%
IC50 [2, 4]: 280 nM

583660 (antisense kG*kA*k[5mC]*dA*d[5mC]*dA*d[5mC]*dG*dG*dT*dG*dG*dA*k[5mC]*kA*kA) [compound 583660]
% inhibition ([1]; 500 nM ASO, ~24 h, Table 17): 44%
percent inhibition of AR, 46.9 nM [2, 6]: 21%
percent inhibition of AR, 187.5 nM [2, 6]: 39%
percent inhibition of AR, 750.0 nM [2, 6]: 61%
percent inhibition of AR, 3000.0 nM [2, 6]: 72%
IC50 [2, 6]: 420 nM
